The source of these data is patent US10053451B2, “Heterocyclic estrogen receptor modulators and uses thereof” (priority 2015, dated 2018).

Structures are written as SMILES.

For one test, the system named is MCF-7 cells. The test can be described thus: Breast Cancer Cell Viability Assay (CellTiter-Glo). Format: cell-based. The note with it: 5 days of compound exposure; for IC50: Homo sapiens, MCF7, 120 h, read-out: MCF7 viab IC50. On the procedure:
The following day a 10 point, serial 1:5 dilution of each compound was added to the cells in 16 μL at a final concentration ranging from 10-0.00000 μM. After 5 days of compound exposure, 16 μL of CellTiter-GLo (Promega, Madison Wis.) was added to the cells, and the relative luminescence units (RLUs) of each well were determined. CellTiter-Glo added to 32 μL of medium without cells was used to obtain a background value.

For another test, the target named is T1, ER-α (Homo sapiens, UniProt P03372).
T1 construct: MCF7 cells were trypsinized and washed twice; endogenous in cells; host or cells: MCF7 breast cancer cells
T1 sequence (P03372 1-595): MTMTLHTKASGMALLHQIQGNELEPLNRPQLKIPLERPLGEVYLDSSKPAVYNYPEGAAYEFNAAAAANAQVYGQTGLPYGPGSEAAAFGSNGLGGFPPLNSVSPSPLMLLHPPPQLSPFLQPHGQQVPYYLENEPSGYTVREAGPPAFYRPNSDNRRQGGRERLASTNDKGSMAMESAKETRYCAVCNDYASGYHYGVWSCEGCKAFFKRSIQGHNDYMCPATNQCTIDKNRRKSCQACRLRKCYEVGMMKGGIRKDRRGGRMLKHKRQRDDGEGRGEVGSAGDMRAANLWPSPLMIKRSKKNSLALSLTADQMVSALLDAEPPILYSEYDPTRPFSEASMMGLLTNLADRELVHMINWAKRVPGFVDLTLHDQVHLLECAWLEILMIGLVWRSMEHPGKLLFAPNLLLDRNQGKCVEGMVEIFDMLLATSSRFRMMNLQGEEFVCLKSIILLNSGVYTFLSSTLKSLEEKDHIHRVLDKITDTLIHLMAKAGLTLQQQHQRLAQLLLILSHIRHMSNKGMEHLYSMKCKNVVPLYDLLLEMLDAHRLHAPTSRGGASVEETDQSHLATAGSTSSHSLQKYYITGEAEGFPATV
Briefly: ER-α In Cell Western Assay. The note with it: MCF7 cells, 4 hours post compound addition, SP1 anti-ER antibody; read-out: ICW (SP1) max response. Format: cell-based. The protocol:
MCF7 cells were trypsinized and washed twice in Phenol Red Free RPMI containing 5% Charcoal Dextran Stripped serum with 20 mM HEPES and NEAA, then adjusted to a concentration of 200,000 cells per mL with the same medium. Next, 16 μL of the cell suspension (3200 cells) was added to each well of a poly-D-lysine coated 384 well plate, and the cells were incubated at 37° C. over 4 days to allow the cells to adhere and grow. […] At 4 hours post compound addition, the cells were fixed by adding 16 μL of 30% formalin to the 32 μL of cells and compound (10% formalin final concentration) for 20 minutes. Cells were then washed twice with PBS Tween 0.1% and then permeabilized in PBS 0.1% Triton (50 μl/well) for additional 15 minutes. The PBS 0.1% triton was decanted, and the cells were washed: LI-COR blocking buffer (50 μL/well) was added, the plate was spun at 3000 rpm, and then the blocking buffer was decanted. Additional LI-COR blocking buffer (50 μL/well) was added, and the cells were incubated overnight at 4° C. The blocking buffer was decanted, and the cells were incubated overnight at 4° C. with SP1 (Thermo Scientific) anti-ER rabbit monoclonal antibody diluted 1:1000 in LI-COR blocking buffer/0.1% Tween-20. Wells which were treated with blocking buffer with Tween but no antibody were used as a background control. Wells were washed twice with PBS Tween 0.1% to remove free SP1 antibodies, and the cells were incubated at room temp for 60-90 minutes in LI-COR goat anti-rabbit IRDye™ 800CW (1:1000) and DRAQ5 DNA dye (1:10000 of 5 mM stock solution) diluted in LI-COR blocking buffer containing 0.1% Tween-20 and 0.01% SDS. Cells were then washed with 0.1% Tween-20/PBS three times. Plates were scanned on a LI-COR Odyssey infrared imaging system. Integrated intensities in the 800 nm channel and 700 nm channel were measured to determine levels of ER-α and DNA respectively. Percent ER levels were determined as follows: (Integrated intensity […] sample/integrated intensity 700 nm sample)/(Integrated intensity 800 nm untreated cells/integrated intensity 700 nm untreated cells)×100=% ER levels.

As to `CC1=C(c2cccc(O)c2)C(c2ccc(OC[C@H](C)N3CC[C@@H](C)C3)cc2)Oc2c1ccc1[nH]ncc21` (stereo partly drawn) [Example 15, 3-(4-Methyl-2-(4-((S)-2-((R)-3-methylpyrrolidin-1-yl)propoxy)phenyl)-2,7-dihydropyrano[2,3-e]indazol-3-yl)phenol], in the test on MCF-7 cells, the “MCF7 viab max response” value is on record as 65.6 and the IC50 stood at 0.46 nM. Further, on ER-α, the Emax turned out to be 79.5%.
On to `C[C@]12CC[C@@H]3c4ccc(O)cc4C[C@@H](CCCCCCCCC[S+]([O-])CCCC(F)(F)C(F)(F)F)[C@H]3[C@@H]1CC[C@@H]2O` (stereo partly drawn) [fulvestrant, reference compound], for which, in the test on MCF-7 cells, the “MCF7 viab max response” value is reported as 74.6 and the IC50 was 0.56 nM. Further, the Emax on ER-α is 93.6%.
